Format in all cases: in vivo
Assay [1] concerns green peach aphid (Myzus persicae). Kind of assay: Green peach aphid control through systemic means (artificial diet, 96-well plates). Conditions: 72 h, adult aphids on treated diet, 3 days, read-out: mortality in comparison with untreated controls. The text has this: B.1 Green Peach Aphid (Myzus persicae)
For evaluating control of green peach aphid (Myzus persicae) through systemic means, the test unit consisted of 96-well-microtiter plates containing liquid artificial diet under an artificial mem brane.
The compounds were formulated using a solution containing 75% v/v water and 25% v/v DMSO. Different concentrations of formulated compounds were pipetted into the aphid diet, using a custom built pipetter, at two replications.
After application, 5 - 8 adult aphids were placed on the artificial membrane inside the microtiter plate wells. The aphids were then allowed to suck on the treated aphid diet and incubated at about 23 ± 1°C and about 50 ± 5 % relative humidity for 3 days. Aphid mortality and fecundity was then visually assessed.

In assay [2] the test system is yellow fever mosquito (Aedes aegypti). The assay is described as follows: whole plant or invertebrate. The conditions noted are these: 48 h, larval mortality, 2 days, read-out: mortality in comparison with untreated controls. The procedure: B.5 Yellow fever mosquito (Aedes aegypti)
For evaluating control of yellow fever mosquito (Aedes aegypti) the test unit consisted of 96-well-microtiter plates containing 200µl of tap water per well and 5-15 freshly hatched A. aegypti larvae.
The active compounds were formulated using a solution containing 75% (v/v) water and 25% (v/v) DMSO. Different concentrations of formulated compounds or mixtures were sprayed onto the insect diet at 2.5µl, using a custom-built micro atomizer, at two replications.
After application, microtiter plates were incubated at 28 ± 1°C, 80 ± 5 % RH for 2 days. Larval mortality was then visually assessed.

The test system of assay [3] is boll weevil (Anthonomus grandis). The assay is described as follows: Boll weevil control (insect diet with eggs, 96-well plates). Conditions: 120 h, egg and larval mortality, 5 days, read-out: mortality in comparison with untreated controls. The procedure:
B.3 Boll weevil (Anthonomus grandis)
For evaluating control of boll weevil (Anthonomus grandis), the test unit consisted of 96-well-microtiter plates containing an insect diet and 5-10 A. grandis eggs.
The compounds were formulated using a solution containing 75% v/v water and 25% v/v DMSO. Different concentrations of formulated compounds were sprayed onto the insect diet at 5µl, using a custom-built micro atomizer, at two replications.
After application, microtiter plates were incubated at about 25 ± 1°C and about 75 ± 5 % relative humidity for 5 days. Egg and larval mortality was then visually assessed.

Assay [4] deals with Southern armyworm (Spodoptera eridania), 2nd instar larvae. Kind of assay: Southern armyworm foliar spray test on lima bean plants. Conditions: 96 h, 4 days after treatment, read-out: mortality in comparison with untreated controls. The procedure:
B.4. Southern armyworm (Spodoptera eridania), 2nd instar larvae
The active compounds were formulated by a Tecan liquid handler in 100% cyclohexanone as a 10,000-ppm solution supplied in tubes. The 10,000-ppm solution was serially diluted in 100% cyclohexanone to make interim solutions. These served as stock solutions for which final dilutions were made by the Tecan in 50% acetone:50% water (v/v) into 10 or 20ml glass vials. A non-ionic surfactant (Kinetic®) was included in the solution at a volume of 0.01% (v/v). The vials were then inserted into an automated electrostatic sprayer equipped with an atomizing nozzle for application to plants/insects. Lima bean plants (variety Sieva) were grown 2 plants to a pot and selected for treatment at the 1st true leaf stage. Test solutions were sprayed onto the foliage by an automated electrostatic plant sprayer equipped with an atomizing spray nozzle. The plants were dried in the sprayer fume hood and then removed from the sprayer. Each pot was placed into perforated plastic bags with a zip closure. Ten to 11 armyworm larvae were placed into the bag and the bags zipped closed. Test plants were maintained in a growth room at about 25°C and about 20-40% relative humidity for 4 days, avoiding direct exposure to fluorescent light (14:10 light:dark photoperiod) to prevent trapping of heat inside the bags. Mortality and reduced feeding were assessed 4 days after treatment, compared to untreated control plants.

Assay [5] relates to tobacco budworm (Heliothis virescens). The assay is described as follows: Tobacco budworm control (insect diet with eggs, 96-well plates). Conditions: for mortality at 2500 ppm: 120 h, egg and larval mortality, 5 days, read-out: mortality in comparison with untreated controls; for mortality at 25 ppm: test B.2, 25 ppm, comparison with prior art, read-out: % mortality in comparison to untreated controls. The procedure: B.2 Tobacco budworm (Heliothis virescens)
For evaluating control of tobacco budworm (Heliothis virescens), the test unit consisted of 96-well-microtiter plates containing an insect diet and 15-25 H. virescens eggs.
The compounds were formulated using a solution containing 75% v/v water and 25% v/v DMSO. Different concentrations of formulated compounds were sprayed onto the insect diet at 10µl, using a custom-built micro atomizer, at two replications.
After application, microtiter plates were incubated at about 28 ± 1°C and about 80 ± 5 % relative humidity for 5 days. Egg and larval mortality was then visually assessed.

For 7 molecules, mortality results are on record in patent EP4488269A1, “TRIAZOLE COMPOUNDS FOR THE CONTROL OF INVERTEBRATE PESTS” (BASF SE, priority 2023, dated 2025).

With `CC(NC(=O)c1cc(C(F)(F)F)cc(C(F)(F)F)c1)c1nccnc1-c1ncn(-c2cccnc2N)n1` (stereo not drawn) [Compound I-2, N-[1-[3-[1-(2-amino-3-pyridyl)-1,2,4-triazol-3-yl]pyrazin-2-yl]ethyl]-3,5-bis(trifluoromethyl)benzamide], the mortality at 2500 ppm in assay [1], in assay [2], in assay [3] and in assay [5] was at least 75% in each case. The mortality at 300 ppm in assay [4] was at least 75%.

As to `CC(NC(=O)c1cc(C(F)(F)F)cc(C(F)(F)F)c1)c1nccnc1-c1ncn(-c2cccnc2[N+](=O)[O-])n1` (stereo not drawn) [Compound I-3, N-[1-[3-[1-(2-nitro-3-pyridyl)-1,2,4-triazol-3-yl]pyrazin-2-yl]ethyl]-3,5-bis(trifluoromethyl)benzamide], the mortality at 2500 ppm in assay [3] and in assay [5] was at least 75% in each case. In addition, in assay [4], the mortality at 300 ppm was at least 75%.

For `CC(NC(=O)c1cc(C(F)(F)F)cc(C(F)(F)F)c1)c1nccnc1-c1ncn(C)n1` (stereo not drawn) [WO2023/025617 I1-12, reference compound], the mortality at 25 ppm in assay [5] is 31%.

For the molecule `CC(NC(=O)c1cc(C(F)(F)F)cc(C(F)(F)F)c1)c1nccnc1-c1ncn(-c2cccnc2Br)n1` (stereo not drawn) [Compound I-4, N-[1-[3-[1-(2-bromo-3-pyridyl)-1,2,4-triazol-3-yl]pyrazin-2-yl]ethyl]-3,5-bis(trifluoromethyl)benzamide], the mortality at 2500 ppm in assay [1], in assay [2], in assay [3] and in assay [5] was at least 75% each time. Moreover, the mortality at 300 ppm in assay [4] is at least 75%.

Consider `CC(NC(=O)c1cc(C(F)(F)F)cc(C(F)(F)F)c1)c1nccnc1-c1ncn(-c2ccccn2)n1` (stereo not drawn) [Compound I-6, N-[1-[3-[1-(2-pyridyl)-1,2,4-triazol-3-yl]pyrazin-2-yl]ethyl]-3,5-bis(trifluoromethyl)benzamide], for which the mortality at 2500 ppm in assay [1], in assay [2], in assay [3] and in assay [5] was at least 75% throughout. For the same molecule, the mortality at 300 ppm in assay [4] is at least 75%. In addition, the mortality at 25 ppm in assay [5] came to 100%.

Turning to `CC(c1nccnc1-c1ncn(-c2ccccn2)n1)N(C)C(=O)c1cc(C(F)(F)F)cc(C(F)(F)F)c1` (stereo not drawn) [Compound I-17, N-methyl-N-[1-[3-[1-(2-pyridyl)-1,2,4-triazol-3-yl]pyrazin-2-yl]ethyl]-3,5-bis(trifluoromethyl)benzamide], the mortality at 2500 ppm in assay [1], in assay [2], in assay [3] and in assay [5] was at least 75% each time. Also, the mortality at 300 ppm in assay [4] was at least 75%.

For `CC(NC(=O)c1cc(C(F)(F)F)cc(C(F)(F)F)c1)c1nccnc1-c1ncn(-c2cccnc2)n1` (stereo not drawn) [Compound I-1, N-[1-[3-[1-(3-pyridyl)-1,2,4-triazol-3-yl]pyrazin-2-yl]ethyl]-3,5-bis(trifluoromethyl)benzamide], the mortality at 2500 ppm in assay [1], in assay [2], in assay [3] and in assay [5] was at least 75% each time. In assay [4], the mortality at 300 ppm is at least 75%.

Broadly, the mortality is the percentage killed.
